Data: the supplement of paper PMC10307832

How the values were obtained:
Test in all cases: relative viability (nuclei count vs DMSO), 5 days (fraction); higher = more cells survive
Alisertib + Linsitinib = compound: COc1cc(Nc2ncc3c(n2)-c2ccc(Cl)cc2C(c2c(F)cccc2OC)=NC3)ccc1C(=O)O [Alisertib] + C[C@]1(O)C[C@@H](c2nc(-c3ccc4ccc(-c5ccccc5)nc4c3)c3c(N)nccn32)C1 [Linsitinib] (partner 1 µM)
Method in brief: (§1)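 Values are medians from duplicate plates. Each reflects relative viability, defined as the nuclei count of treated wells over that of vehicle wells. Lung cancer cell lines in 1536-well plates were pin-tool dosed one day after seeding with one drug alone or with a fixed anchor-drug dose plus five library-drug doses (not always all listed) in √10 steps, then fixed, stained and imaged at 4× after 5 days.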

Alisertib + Pemetrexed = compound: COc1cc(Nc2ncc3c(n2)-c2ccc(Cl)cc2C(c2c(F)cccc2OC)=NC3)ccc1C(=O)O [Alisertib] + Nc1nc2[nH]cc(CCc3ccc(C(=O)N[C@@H](CCC(=O)O)C(=O)O)cc3)c2c(=O)[nH]1 [Pemetrexed] (partner 0.2 µM)
Method in brief: as §1

Alisertib + Vorinostat = compound: COc1cc(Nc2ncc3c(n2)-c2ccc(Cl)cc2C(c2c(F)cccc2OC)=NC3)ccc1C(=O)O [Alisertib] + O=C(CCCCCCC(=O)Nc1ccccc1)NO [Vorinostat] (partner 1 µM)
Method in brief: as §1

Alisertib + Olaparib = compound: COc1cc(Nc2ncc3c(n2)-c2ccc(Cl)cc2C(c2c(F)cccc2OC)=NC3)ccc1C(=O)O [Alisertib] + O=C(c1cc(Cc2n[nH]c(=O)c3ccccc23)ccc1F)N1CCN(C(=O)C2CC2)CC1 [Olaparib] (partner 8 µM)
Method in brief: as §1

Cell Line | relative viability (Alisertib + Linsitinib; first compound 0.005 µM) | relative viability (Alisertib + Linsitinib; first compound 0.01581 µM) | relative viability (Alisertib + Linsitinib; first compound 0.05 µM) | relative viability (Alisertib + Linsitinib; first compound 0.1581 µM) | relative viability (Alisertib + Linsitinib; first compound 0.5 µM) | relative viability (Alisertib + Pemetrexed; first compound 0.005 µM) | relative viability (Alisertib + Pemetrexed; first compound 0.01581 µM) | relative viability (Alisertib + Pemetrexed; first compound 0.05 µM) | relative viability (Alisertib + Pemetrexed; first compound 0.1581 µM) | relative viability (Alisertib + Pemetrexed; first compound 0.5 µM) | relative viability (Alisertib + Vorinostat; first compound 0.005 µM) | relative viability (Alisertib + Vorinostat; first compound 0.01581 µM) | relative viability (Alisertib + Vorinostat; first compound 0.05 µM) | relative viability (Alisertib + Vorinostat; first compound 0.1581 µM) | relative viability (Alisertib + Vorinostat; first compound 0.5 µM) | relative viability (Alisertib + Olaparib; first compound 0.005 µM) | relative viability (Alisertib + Olaparib; first compound 0.01581 µM) | relative viability (Alisertib + Olaparib; first compound 0.05 µM) | relative viability (Alisertib + Olaparib; first compound 0.1581 µM) | relative viability (Alisertib + Olaparib; first compound 0.5 µM)
NCI-H650 | 0.614 | 0.727 | 0.437 | 0.217 | 0.188 | 0.739 | 0.825 | 0.35 | 0.262 | 0.2 | 0.263 | 0.414 | 0.144 | 0.17 | 0.131 | 0.366 | 0.299 | 0.171 | 0.164 | 0.154
NCI-H661 | 0.635 | 0.389 | 0.304 | 0.323 | 0.282 | 0.868 | 0.858 | 0.636 | 0.46 | 0.324 | 0.771 | 0.729 | 0.435 | 0.355 | 0.276 | 0.735 | 0.562 | 0.397 | 0.355 | 0.357
NCI-H838 | 0.962 | 0.845 | 0.573 | 0.278 | 0.202 | 0.222 | 0.233 | 0.198 | 0.2 | 0.17 | 0.597 | 0.461 | 0.294 | 0.185 | 0.197 | 0.673 | 0.552 | 0.324 | 0.169 | 0.152
NCI-H1355 | 0.791 | 0.8 | 0.394 | 0.22 | 0.154 | 0.904 | 0.875 | 0.65 | 0.27 | 0.197 | 0.589 | 0.522 | 0.525 | 0.204 | 0.177 | 0.575 | 0.476 | 0.191 | 0.152 | 0.159
NCI-H1395 | 1.18 | 1.02 | 0.716 | 0.509 | 0.488 | 0.725 | 0.766 | 0.574 | 0.413 | 0.353 | 0.667 | 0.588 | 0.442 | 0.385 | 0.321 | 0.438 | 0.424 | 0.442 | 0.37 | 0.361
NCI-H1437 | 0.951 | 0.775 | 0.365 | 0.15 | 0.104 | 0.28 | 0.261 | 0.235 | 0.231 | 0.166 | 0.774 | 0.606 | 0.42 | 0.283 | 0.213 | 0.585 | 0.47 | 0.383 | 0.257 | 0.179
NCI-H1651 | 0.843 | 0.774 | 0.451 | 0.217 | 0.22 | 0.509 | 0.495 | 0.339 | 0.199 | 0.173 | 0.517 | 0.461 | 0.325 | 0.118 | 0.135 | 0.166 | 0.157 | 0.12 | 0.112 | 0.126
NCI-H1666 | 0.815 | 0.812 | 0.41 | 0.317 | 0.253 | 0.829 | 0.844 | 0.791 | 0.672 | 0.537 | 1.01 | 0.995 | 0.846 | 0.617 | 0.555 | 0.739 | 0.739 | 0.706 | 0.629 | 0.511
NCI-H1734 | 0.869 | 0.86 | 0.469 | 0.334 | 0.213 | 0.42 | 0.427 | 0.405 | 0.286 | 0.203 | 0.604 | 0.519 | 0.302 | 0.221 | 0.189 | 0.591 | 0.531 | 0.289 | 0.315 | 0.172
NCI-H1755 | 1 | 0.947 | 0.62 | 0.5 | 0.271 | 0.443 | 0.399 | 0.386 | 0.321 | 0.34 | 0.768 | 0.776 | 0.433 | 0.386 | 0.329 | 0.814 | 0.792 | 0.532 | 0.509 | 0.287
NCI-H1793 | 0.811 | 0.923 | 0.373 | 0.276 | 0.197 | 0.551 | 0.339 | 0.356 | 0.232 | 0.209 | 0.465 | 0.41 | 0.267 | 0.191 | 0.221 | 0.798 | 0.354 | 0.296 | 0.273 | 0.132
NCI-H1915 | 0.984 | 0.948 | 0.504 | 0.354 | 0.224 | 0.432 | 0.382 | 0.325 | 0.262 | 0.219 | 0.496 | 0.473 | 0.374 | 0.206 | 0.161 | 0.218 | 0.186 | 0.142 | 0.138 | 0.129
NCI-H1944 | 1.23 | 1.33 | 0.971 | 0.508 | 0.265 | 0.579 | 0.662 | 0.564 | 0.246 | 0.18 | 0.573 | 0.52 | 0.339 | 0.183 | 0.188 | 0.402 | 0.381 | 0.318 | 0.201 | 0.178
NCI-H1975 | 0.917 | 0.861 | 0.484 | 0.331 | 0.188 | 0.289 | 0.265 | 0.235 | 0.214 | 0.185 | 0.657 | 0.688 | 0.284 | 0.214 | 0.201 | 0.68 | 0.627 | 0.347 | 0.234 | 0.163
NCI-H1993 | 0.685 | 0.659 | 0.606 | 0.613 | 0.578 | 0.614 | 0.631 | 0.506 | 0.539 | 0.422 | 0.63 | 0.436 | 0.395 | 0.372 | 0.339 | 1.09 | 0.995 | 0.682 | 0.483 | 0.433
